Activity calls are given as the source filed them. The calls are words filed in the database; no cut-off is given here.
Key:
Mus musculus [1] = assay: In vivo inhibition of cathepsin C in po dosed LPS-induced ALI C57BL/6 mouse model assessed as downregulation of neutrophil elastase activity in bone marrow treated 1 hr prior to LPS challenge and measured after 48 hrs; assay type: functional, organism-based; conditions: dose 2-50 mg/kg, time 49.0 hrs, DDE = dose-dependent effect
Mus musculus [2] = assay: Anti-inflammatory activity against po dosed LPS-induced ALI C57BL/6 mouse model assessed as decrease in IL-6 level in serum treated 1 hr prior to LPS challenge and measured after 48 hrs by ELISA; assay type: functional, organism-based; conditions: dose 2-50 mg/kg, time 49.0 hrs, DDE = dose-dependent effect
[3] = AUC(0 to infinity) in Sprague-Dawley rat at 2 mg/kg, iv by LC-MS/MS analysis; assay type: ADME, organism-based; set-up: time infinity, dose 2 mg/kg, route iv; conditions: in vivo
[4] = target: T1, Dipeptidyl peptidase 1 (Mus musculus) (UniProt P97821); assay: Inhibition of Cathepsin C in C57BL/6 mouse Bone marrow cells assessed as reduction of NSPs stability by measuring stability of neutrophil elastase at 1 uM treated for 48 hrs by Western blotting analysis; assay type: cell-based; set-up: scale not given: the % may be the effect or the level left; conditions: Bone marrow cell
T1 sequence (whole entry): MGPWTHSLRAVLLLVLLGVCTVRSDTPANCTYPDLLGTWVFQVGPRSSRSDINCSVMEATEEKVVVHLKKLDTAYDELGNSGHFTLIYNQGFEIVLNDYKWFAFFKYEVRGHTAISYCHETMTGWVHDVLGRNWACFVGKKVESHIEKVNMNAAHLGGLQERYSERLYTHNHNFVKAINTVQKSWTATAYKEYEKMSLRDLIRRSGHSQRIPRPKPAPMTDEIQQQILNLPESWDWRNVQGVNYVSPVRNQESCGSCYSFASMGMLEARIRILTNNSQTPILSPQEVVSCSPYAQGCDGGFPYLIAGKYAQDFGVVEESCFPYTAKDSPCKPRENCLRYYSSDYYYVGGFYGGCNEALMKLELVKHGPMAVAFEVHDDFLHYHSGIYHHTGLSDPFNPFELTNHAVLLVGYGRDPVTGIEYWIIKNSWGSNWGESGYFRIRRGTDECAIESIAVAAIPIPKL

[5] = Half life in Sprague-Dawley rat at 10 mg/kg, po measured for 24 hrs by LC-MS/MS analysis; assay type: ADME, organism-based; conditions: in vivo
Mus musculus [6] = assay: Anti-inflammatory activity against po dosed LPS-induced ALI C57BL/6 mouse model assessed as increase in IL-10 level in serum treated 1 hr prior to LPS challenge and measured after 48 hrs by ELISA; assay type: functional, organism-based; conditions: dose 2-50 mg/kg, time 49.0 hrs, DDE = dose-dependent effect
Mus musculus [7] = assay: In vivo inhibition of cathepsin C in po dosed LPS-induced ALI C57BL/6 mouse model assessed as downregulation of PR3 activity in blood treated 1 hr prior to LPS challenge and measured after 48 hrs; assay type: functional, organism-based; conditions: dose 2-50 mg/kg, time 49.0 hrs, DDE = dose-dependent effect
[8] = Acute toxicity in ICR mouse assessed as animal behavioural changes at 1500 mg/kg, po administered as single dose and measured for 7 days; assay type: organism-based; conditions: in vivo, time 7 day
[9] = Acute toxicity in ICR mouse assessed as mortality at 1500 mg/kg, po administered as single dose and measured for 7 days; assay type: organism-based; conditions: in vivo, time 7 day
Mus musculus [10] = assay: Anti-inflammatory activity against po dosed LPS-induced ALI C57BL/6 mouse model assessed as decrease in TNF-alpha level in lungs treated 1 hr prior to LPS challenge and measured after 48 hrs by ELISA; assay type: functional, organism-based; conditions: dose 2-50 mg/kg, time 49.0 hrs, DDE = dose-dependent effect
[11] = Cmax in Sprague-Dawley rat at 10 mg/kg, po measured after 24 hrs by LC-MS/MS analysis; assay type: ADME, organism-based; set-up: dose 10 mg/kg, time 24 hrs, route po; conditions: in vivo
Mus musculus [12] = assay: Anti-inflammatory activity against po dosed LPS-induced ALI C57BL/6 mouse model assessed as decrease in GM-CSF level in serum treated 1 hr prior to LPS challenge and measured after 48 hrs by ELISA; assay type: functional, organism-based; conditions: dose 2-50 mg/kg, time 49.0 hrs, DDE = dose-dependent effect
Mus musculus [13] = assay: Anti-inflammatory activity against po dosed LPS-induced ALI C57BL/6 mouse model assessed as decrease in IL-6 level in lungs treated 1 hr prior to LPS challenge and measured after 48 hrs by ELISA; assay type: functional, organism-based; conditions: dose 2-50 mg/kg, time 49.0 hrs, DDE = dose-dependent effect
[14] = AUC(last) in Sprague-Dawley rat at 2 mg/kg, iv measured after 24 hrs by LC-MS/MS analysis; assay type: ADME, organism-based; set-up: dose 2 mg/kg, time 24 hrs, route iv; conditions: in vivo
Mus musculus [15] = assay: In vivo inhibition of cathepsin C in bone marrow of po dosed LPS-induced ALI C57BL/6 mouse model treated 1 hr prior to LPS challenge and measured after 48 hrs; assay type: functional, organism-based; conditions: dose 2-50 mg/kg, time 49.0 hrs, DDE = dose-dependent effect
Mus musculus [16] = assay: Anti-inflammatory activity against po dosed LPS-induced ALI C57BL/6 mouse model assessed as decrease in histopatological changes of lungs treated 1 hr prior to LPS challenge and measured after 48 hrs by H and E staining based analysis; assay type: functional, organism-based; conditions: dose 2-50 mg/kg, time 49.0 hrs, DDE = dose-dependent effect
[17] = Acute toxicity in ICR mouse assessed as pathological changes of spleen at 1500 mg/kg, po administered as single dose measured after 7 days by H and E staining based assay; assay type: organism-based; conditions: in vivo, time 7 day
Cathepsin B = Cathepsin B (Homo sapiens, UniProt P07858); assay: Inhibition of human recombinant Cathepsin B using Z-Leu-Arg-AMC as substrate pretreated for 60 mins followed by substrate addition and incubated for 30 mins by microplate reader assay
Mus musculus [18] = assay: In vivo inhibition of cathepsin C in po dosed LPS-induced ALI C57BL/6 mouse model assessed as downregulation of Cat G activity in blood treated 1 hr prior to LPS challenge and measured after 48 hrs; assay type: functional, organism-based; conditions: dose 2-50 mg/kg, time 49.0 hrs, DDE = dose-dependent effect
Mus musculus [19] = assay: In vivo inhibition of cathepsin C in po dosed LPS-induced ALI C57BL/6 mouse model assessed as downregulation of neutrophil elastase activity in blood treated 1 hr prior to LPS challenge and measured after 48 hrs; assay type: functional, organism-based; conditions: dose 2-50 mg/kg, time 49.0 hrs, DDE = dose-dependent effect
[20] = Cmax in Sprague-Dawley rat at 2 mg/kg, iv measured after 24 hrs by LC-MS/MS analysis; assay type: ADME, organism-based; set-up: time 24 hrs, dose 2 mg/kg, route iv; conditions: in vivo
[21] = target: T1, Dipeptidyl peptidase 1 (Mus musculus); assay: Inhibition of Cathepsin C in C57BL/6 mouse Bone marrow cells assessed as reduction of NSPs stability by measuring stability of neutrophil elastase at 1 uM treated for 12 hrs by Western blotting analysis; assay type: cell-based; set-up: scale not given: the % may be the effect or the level left; conditions: Bone marrow cell
Mus musculus [22] = assay: Anti-inflammatory activity against po dosed LPS-induced ALI C57BL/6 mouse model assessed as decrease in GM-CSF level in lungs treated 1 hr prior to LPS challenge and measured after 48 hrs by ELISA; assay type: functional, organism-based; conditions: dose 2-50 mg/kg, time 49.0 hrs, DDE = dose-dependent effect
[23] = Oral bioavailability in Sprague-Dawley rat at 10 mg/kg measured after 24 hrs by LC-MS/MS analysis; assay type: ADME, organism-based; conditions: in vivo
[24] = MRT in Sprague-Dawley rat at 2 mg/kg, iv measured after 24 hrs by LC-MS/MS analysis; assay type: ADME, organism-based; conditions: in vivo
[25] = target: T1, Dipeptidyl peptidase 1 (Mus musculus); assay: Inhibition of Cathepsin C in C57BL/6 mouse Bone marrow cells assessed as reduction of NSPs stability by measuring stability of protease 3 at 1 uM treated for 48 hrs by Western blotting analysis; assay type: cell-based; set-up: scale not given: the % may be the effect or the level left; conditions: Bone marrow cell
Dipeptidyl peptidase 1 = Dipeptidyl peptidase 1 (Homo sapiens, UniProt P53634); assay: Binding affinity to Cathepsin C in human U-937 cells assessed as increase in thermal stability measured at 52 degC after 4 hrs by cellular thermal shift assay; assay type: cell-based; conditions: dose 0.5-10 µM
[26] = Acute toxicity in ICR mouse assessed as pathological changes of kidney at 1500 mg/kg, po administered as single dose measured after 7 days by H and E staining based assay; assay type: organism-based; conditions: in vivo, time 7 day
[27] = Acute toxicity in ICR mouse assessed as body weight loss at 1500 mg/kg, po administered as single dose and measured for 7 days; assay type: organism-based; conditions: in vivo, time 7 day
Mus musculus [28] = assay: Anti-inflammatory activity against po dosed LPS-induced ALI C57BL/6 mouse model assessed as decrease in MPO activity in lungs treated 1 hr prior to LPS challenge and measured after 48 hrs; assay type: functional, organism-based; conditions: dose 2-50 mg/kg, time 49.0 hrs, DDE = dose-dependent effect

Chain of Dipeptidyl peptidase 1 (P53634 25-134 limits assumed): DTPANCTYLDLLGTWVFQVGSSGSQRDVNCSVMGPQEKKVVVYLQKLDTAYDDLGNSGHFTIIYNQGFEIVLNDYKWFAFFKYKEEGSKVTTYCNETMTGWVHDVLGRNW
Chain of Dipeptidyl peptidase 1 (P53634 231-394 limits assumed): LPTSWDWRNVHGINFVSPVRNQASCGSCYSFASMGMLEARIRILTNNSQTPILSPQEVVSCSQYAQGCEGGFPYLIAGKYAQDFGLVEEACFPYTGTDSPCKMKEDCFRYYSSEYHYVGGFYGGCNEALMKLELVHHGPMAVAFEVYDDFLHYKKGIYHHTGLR
Chain of Dipeptidyl peptidase 1 (P53634 395-463 limits assumed): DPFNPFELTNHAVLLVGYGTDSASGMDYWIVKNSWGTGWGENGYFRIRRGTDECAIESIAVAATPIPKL

Compound: CC(=O)Nc1cccc(Nc2nc(Nc3ccc(-c4ccsc4)cn3)ncc2Cl)c1
- inhibition (Mus musculus [1]): Dde
- Activity (Mus musculus [2]): Dde
- AUC [3]: 1124.78 ng·h/mL
- Activity [4]: 46.1%
- half-life [5]: 1.79 h
- Activity (Mus musculus [6]): Dde
- inhibition (Mus musculus [7]): Dde
- Activity [8]: Non-Toxic
- Activity [9]: Non-Toxic
- Activity (Mus musculus [10]): Dde
- Cmax [11]: 177 ng/mL
- Activity (Mus musculus [12]): Dde
- Activity (Mus musculus [13]): Dde
- AUC(0-t) at 24 h [14]: 1440 ng·h/mL
- inhibition (Mus musculus [15]): Dde
- Activity (Mus musculus [16]): Dde
- Activity [17]: Non-Toxic
- IC50 (Cathepsin B): > 5 µM
- inhibition (Mus musculus [18]): Dde
- inhibition (Mus musculus [19]): Dde
- Cmax [20]: 309 ng/mL
- Activity [21]: 68.3%
- Activity (Mus musculus [22]): Dde
- F [23]: 42.07%
- MRT [24]: 3.38 h
- Activity [25]: 46.8%
- Activity (Dipeptidyl peptidase 1): Active
- Activity [26]: Non-Toxic
- Activity [27]: Non-Toxic
- Activity (Mus musculus [28]): Dde

Reference: ChEMBL document CHEMBL5154871, “Non-peptidyl non-covalent cathepsin C inhibitoEEr bearing a unique thiophene-substituted pyridine: Design, structure-activity relationship and anti-inflammatory activity in vivo” (Eur J Med Chem, 2022)
